Assays:
[1] = Antioxidant action examined by using stable radicals: reduction activity of DPPH (Blois method, absorbance at 517 nm); conditions: 0.1 mM DPPH in ethanol, after 20 minutes, read-out: 50% radical eliminating concentration
Description: (Antioxidant action examined by using stable radicals)
Reduction activity of α,α-diphenyl-β-picrylhydrazyl (DPPH) which was a stable free radical was examined according to the M. S. Blois method (Nature, vol. 181, page. 1199, 1958) and used as an index to antioxidant action. Thus, specimens were added to 3 ml of a 0.1 mM DPPH solution in ethanol, and absorbance at a wavelength of 517 nm was measured using a spectrophotometer after 20 minutes. The difference in absorbance from the solvent control [0.5% or less of dimethylformamide (DMF)] was taken as the reduction activity.

[2] = Effects on formazan formation in the xanthine-xanthine oxidase-Nitrotetrazolium Blue system; assay type: biochemical; conditions: for Inhibition ratio of formazan formation: pH 7.8, 30° C., 10 minutes; for inhibition of formazan formation (result in words): xanthine-xanthine oxidase-NTB system
Description: (Effects on formazan formation in the xanthine-xanthine oxidase-Nitrotetrazolium Blue system)
Specimens were added to a 0.05M phosphate buffer solution (pH 7.8) containing xanthine, EDTA 2Na and Nitrotetrazolium Blue (NTB) so as to provide the respective final concentrations of 5×10^-5 M, 1×10^-4 M and 5×10^-4 M and warmed at 30° C. for 3 minutes. Xanthine oxidase (manufactured by Sigma Corp.) was added, and the resulting specimens were warmed at 30° C. for 10 minutes to colorimetrically determine formazan formed by superoxide anion radicals. The inhibition ratio of formazan formation was determined from the results at concentrations of 0.5 mM and 4 mM of each specimen.

SMILES | IC50 [1] | further results
CCCCCCCCCCCCCCCCCCOC1=C(O)C(=O)O[C@@H]1[C@@H]1COC(C)(C)O1 [Compound 001] | 30 µM | 
CCCCCCCCCCCCOC1=C(O)C(=O)O[C@@H]1[C@@H]1COC(C)(C)O1 [Compound 002] | 29 µM | 
CCCCCCCCOC1=C(O)C(=O)O[C@@H]1[C@@H]1COC(C)(C)O1 [Compound 003] | 27 µM | 
CCC(C)OC1=C(O)C(=O)O[C@@H]1[C@@H]1COC(C)(C)O1 (stereo partly shown) [Compound 005] | 32 µM | 
C=CCOC1=C(O)C(=O)O[C@@H]1[C@@H]1COC(C)(C)O1 [Compound 011] | 33 µM | 
CC1(C)OC[C@@H]([C@H]2OC(=O)C(O)=C2OCCO)O1 [Compound 012] | 35 µM | 
CCOC(=O)C(C)OC1=C(O)C(=O)O[C@@H]1[C@@H]1COC(C)(C)O1 (stereo partly shown) [Compound 014] | 26 µM | 
CC1(C)OC[C@@H]([C@H]2OC(=O)C(O)=C2OCC(=O)O)O1 [Compound 015] | 31 µM | 
CC(C)(C)OC(=O)COC1=C(O)C(=O)O[C@@H]1[C@@H]1COC(C)(C)O1 [Compound 017] | 25 µM | 
CCCCCCCCCCOC(=O)COC1=C(O)C(=O)O[C@@H]1[C@@H]1COC(C)(C)O1 [Compound 018] | 28 µM | 
CCCCOC(=O)COC1=C(O)C(=O)O[C@@H]1[C@@H]1COC(C)(C)O1 [Compound 019] | 25 µM | 
CC1(C)OC[C@@H]([C@H]2OC(=O)C(O)=C2OCC#N)O1 [Compound 024] | 31 µM | 

More lines, in order of falling IC50 [1], values ahead:

IC50 [1] | SMILES | further results
25 µM | CCCCOC1=C(O)C(=O)O[C@@H]1[C@@H]1COC(C)(C)O1 [Compound 004] | 
25 µM | CC1(C)OC[C@@H]([C@H]2OC(=O)C(O)=C2OCCCCCCCCCCCCCCCCC(=O)O)O1 [Compound 009] | 
25 µM | CC1(C)OC[C@@H]([C@H]2OC(=O)C(O)=C2OCC(=O)OCc2ccccc2)O1 [Compound 016] | 
24 µM | CC1(C)OC[C@@H]([C@H]2OC(=O)C(O)=C2OCC(=O)c2ccccc2)O1 [Compound 023] | 
23 µM | CC1(C)OC[C@@H]([C@H]2OC(=O)C(O)=C2OCc2cccnc2)O1 [Compound 007] | 
23 µM | CCOC(=O)COC1=C(O)C(=O)O[C@@H]1[C@@H]1COC(C)(C)O1 [Compound 020] | 
22 µM | CC1(C)OC[C@@H]([C@H]2OC(=O)C(O)=C2OCc2ccccc2)O1 [Compound 006] | 
22 µM | CCOC1=C(O)C(=O)O[C@@H]1[C@@H]1COC(C)(C)O1 [Compound 025] | 
20 µM | CCC(=O)COC1=C(O)C(=O)O[C@@H]1[C@@H]1COC(C)(C)O1 [Compound 022, L-5,6-O-isopropylidene-3-O-(3-butanone) ascorbic acid] | Inhibition ratio of formazan formation ([2]; 0.5 mM): 22.6%; Inhibition ratio of formazan formation ([2]; 4 mM): 26.7%; inhibition of formazan formation (result in words) [2]: remarkably inhibited formazan formation
17 µM | COCOC1=C(O)C(=O)O[C@@H]1[C@@H]1COC(C)(C)O1 [Compound 013] | 
17 µM | CC(=O)COC1=C(O)C(=O)O[C@@H]1[C@@H]1COC(C)(C)O1 [Compound 021, L-5,6-O-isopropylidene-3-O-methylcarbomethylascorbic acid] | Inhibition ratio of formazan formation ([2]; 0.5 mM): 9.2%; Inhibition ratio of formazan formation ([2]; 4 mM): 47.4%; inhibition of formazan formation (result in words) [2]: remarkably inhibited formazan formation
16 µM | CCOC(=O)CCCCOC1=C(O)C(=O)O[C@@H]1[C@@H]1COC(C)(C)O1 [Compound 008] | 
16 µM | CCOC(=O)CCCOC1=C(O)C(=O)O[C@@H]1[C@@H]1COC(C)(C)O1 [Compound 010] | 

From patent publication US5034543A, “Ascorbic acid derivative and use as antioxidants” (Nippon Hypox Laboratories Incorporated, priority 1989, dated 1991)
